Results: ChEMBL document CHEMBL1201862, “PubChem BioAssay data set” (2004)
Activity calls are given as the source filed them.

Columns and labels:
[1] = target: Sphingosine 1-phosphate receptor 4 (Homo sapiens, UniProt O95977); assay: Late-stage fluorescence dose response cell-based assay to identify agonists of the Sphingosine 1-Phosphate Receptor 4 (S1P4): purchased compounds EC50. [Related pubchem assays (depositor defined):AID1509, AID1523, AID1563, AID1686, AID1701, AID1801]; type: functional
[2] = target: T1, Zinc finger protein mex-5 (Caenorhabditis elegans, UniProt Q9XUB2); assay: MEX-5/TCR-2 RNA interaction inhibitors, dose response, biochemical, C. elegans, fluorescence polarization (AID 1960)
T1 sequence (Q9XUB2 whole entry): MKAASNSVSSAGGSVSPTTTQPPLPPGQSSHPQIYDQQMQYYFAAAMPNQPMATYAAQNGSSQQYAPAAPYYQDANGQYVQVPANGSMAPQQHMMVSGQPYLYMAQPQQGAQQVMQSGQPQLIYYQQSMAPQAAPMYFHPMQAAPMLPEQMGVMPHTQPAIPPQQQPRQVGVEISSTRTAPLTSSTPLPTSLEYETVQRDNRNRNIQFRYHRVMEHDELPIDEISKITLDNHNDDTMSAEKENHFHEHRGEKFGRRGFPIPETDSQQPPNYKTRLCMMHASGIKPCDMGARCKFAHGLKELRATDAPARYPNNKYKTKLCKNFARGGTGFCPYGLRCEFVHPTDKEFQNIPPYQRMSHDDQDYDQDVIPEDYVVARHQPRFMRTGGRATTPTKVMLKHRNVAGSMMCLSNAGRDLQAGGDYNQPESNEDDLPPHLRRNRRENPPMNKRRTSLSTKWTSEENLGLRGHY

[3] = target: Beta-lactamase (Pseudomonas aeruginosa, UniProt Q79MP6);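 note: biochemical dose-response test of metallo-beta-lactamase enzyme inhibition, read out by epi-absorbance; purified recombinant IMP-1 metallo-beta-lactamase with nitrocefin as substrate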
[4] = target: Mucolipin-3 (Homo sapiens, UniProt Q8TDD5); assay: Fluorescence counterscreen assay for […] agonists: dose response cell-based high-throughput screening assay to identify agonists of the transient receptor potential channel ML3 (TRPML3). [Related pubchem assays: 1424, 1448 ]; type: functional
[5] = target: Ion channel NompC (Danio rerio, UniProt Q7T1G6); assay: Dose response cell-based high-throughput screening assay for agonists of the transient receptor potential channel N1 (TRPN1). [Related pubchem assays (depositor defined):AID1424, AID1448]; type: functional
[6] = target: Beta-lactamase (Salmonella choleraesuis (strain SC-B67), UniProt Q5J463)
[7] = target: T2, RNA-binding protein pos-1 (Caenorhabditis elegans, UniProt G5EF15); assay: inhibitors of POS-1/mex-3 RNA binding, dose response, biochemical, fluorescence polarization (AID 1964);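 note: purified POS-1 fused to maltose binding protein made in E. coli; potency of compounds blocking POS-1 binding to fluorescent RNA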
T2 sequence (G5EF15 whole entry): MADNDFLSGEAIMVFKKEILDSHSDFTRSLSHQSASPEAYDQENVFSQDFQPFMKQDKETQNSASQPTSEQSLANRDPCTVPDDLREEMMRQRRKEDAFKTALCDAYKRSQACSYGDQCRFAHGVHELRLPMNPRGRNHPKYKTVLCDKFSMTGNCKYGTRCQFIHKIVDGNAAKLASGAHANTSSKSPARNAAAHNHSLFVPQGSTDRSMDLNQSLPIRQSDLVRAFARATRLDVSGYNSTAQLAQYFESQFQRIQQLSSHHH

[8] = target: T3, Cannabinoid receptor 1 (Homo sapiens, UniProt P21554); assay: SAR analysis of antagonists of the Cannabinoid Receptor 1 using an Image-Based Assay - Set 4. [Related pubchem assays (depositor defined):AID2013, AID2026]; type: functional
[9] = target: T4, Cannabinoid receptor 2 (Homo sapiens, UniProt P34972); assay: SAR analysis of agonists of the Cannabinoid Receptor 2 using an Image-Based Assay - Set 3. [Related pubchem assays (depositor defined):AID2013, AID2026]; type: functional
[10] = target: T5, G-protein coupled receptor 35 (Homo sapiens, UniProt Q9HC97); assay: SAR analysis of Antagonists of the GPR35 Receptor using an Image-Based Assay - Set 6. [Related pubchem assays (depositor defined):AID2013, AID2026]; type: functional
[11] = target: T3, Cannabinoid receptor 1; assay: SAR analysis of agonists of the Cannabinoid Receptor 1 using an Image-Based Assay - Set 4. [Related pubchem assays (depositor defined):AID2013, AID2026]; type: functional
[12] = target: T5, G-protein coupled receptor 35; assay: SAR analysis of Agonists of the GPR35 Receptor using an Image-Based Assay - Set 4. [Related pubchem assays (depositor defined):AID2013, AID2026]; type: functional
[13] = target: T4, Cannabinoid receptor 2; assay: SAR analysis of antagonists of the Cannabinoid Receptor 2 using an Image-Based Assay - Set 3. [Related pubchem assays (depositor defined):AID2013, AID2026]; type: functional
[14] = target: T6, G-protein coupled receptor 55 (Homo sapiens, UniProt Q9Y2T6); assay: SAR Analysis of Selective Antagonists of GPR55 using an Image-Based Assay - Set 4. [Related pubchem assays (depositor defined):AID2013, AID2026]; type: functional
[15] = target: T4, Cannabinoid receptor 2; assay: SAR analysis of antagonists of the Cannabinoid Receptor 2 using an Image-Based Assay. [Related pubchem assays (depositor defined):AID2013, AID2026]; type: functional
[16] = target: T4, Cannabinoid receptor 2; assay: SAR analysis of agonists of the Cannabinoid Receptor 2 using an Image-Based Assay. [Related pubchem assays (depositor defined):AID2013, AID2026]; type: functional
[17] = target: T6, G-protein coupled receptor 55; assay: GPR55 antagonist potency of analogs, SAR follow-up, imaging, U2OS, beta-arrestin-GFP, LPI agonist, set 2 (AID 2820); type: functional
[18] = target: T5, G-protein coupled receptor 35; assay: SAR analysis of Antagonists of the GPR35 Receptor using an Image-Based Assay - Set 3. [Related pubchem assays (depositor defined):AID2013, AID2026]; type: functional
[19] = target: T6, G-protein coupled receptor 55; assay: GPR55 antagonists blocking LPI-driven arrestin recruitment, primary screen, imaging, U2OS, beta-arrestin-GFP, LPI agonist (AID 2013); type: functional;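 note: antagonist potency measured as reduced agonist-driven arrestin aggregation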
[20] = target: T3, Cannabinoid receptor 1; assay: SAR analysis of agonists of the Cannabinoid Receptor 1 using an Image-Based Assay - Set 2. [Related pubchem assays (depositor defined):AID2013, AID2026]; type: functional
[21] = target: T3, Cannabinoid receptor 1; assay: SAR analysis of antagonists of the Cannabinoid Receptor 1 using an Image-Based Assay - Set 2. [Related pubchem assays (depositor defined):AID2013, AID2026]; type: functional
[22] = target: T7, Short transient receptor potential channel 4 (Mus musculus, UniProt Q9QUQ5); assay: mouse TRPC4 channel inhibitors, dose response, cell-based, HEK293 TRPC4/mu-opioid, Fluo-4 calcium (AID 434942); type: functional;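 note: potency of inhibitors blocking the TRPC4 calcium response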
T7 sequence (Q9QUQ5 whole entry): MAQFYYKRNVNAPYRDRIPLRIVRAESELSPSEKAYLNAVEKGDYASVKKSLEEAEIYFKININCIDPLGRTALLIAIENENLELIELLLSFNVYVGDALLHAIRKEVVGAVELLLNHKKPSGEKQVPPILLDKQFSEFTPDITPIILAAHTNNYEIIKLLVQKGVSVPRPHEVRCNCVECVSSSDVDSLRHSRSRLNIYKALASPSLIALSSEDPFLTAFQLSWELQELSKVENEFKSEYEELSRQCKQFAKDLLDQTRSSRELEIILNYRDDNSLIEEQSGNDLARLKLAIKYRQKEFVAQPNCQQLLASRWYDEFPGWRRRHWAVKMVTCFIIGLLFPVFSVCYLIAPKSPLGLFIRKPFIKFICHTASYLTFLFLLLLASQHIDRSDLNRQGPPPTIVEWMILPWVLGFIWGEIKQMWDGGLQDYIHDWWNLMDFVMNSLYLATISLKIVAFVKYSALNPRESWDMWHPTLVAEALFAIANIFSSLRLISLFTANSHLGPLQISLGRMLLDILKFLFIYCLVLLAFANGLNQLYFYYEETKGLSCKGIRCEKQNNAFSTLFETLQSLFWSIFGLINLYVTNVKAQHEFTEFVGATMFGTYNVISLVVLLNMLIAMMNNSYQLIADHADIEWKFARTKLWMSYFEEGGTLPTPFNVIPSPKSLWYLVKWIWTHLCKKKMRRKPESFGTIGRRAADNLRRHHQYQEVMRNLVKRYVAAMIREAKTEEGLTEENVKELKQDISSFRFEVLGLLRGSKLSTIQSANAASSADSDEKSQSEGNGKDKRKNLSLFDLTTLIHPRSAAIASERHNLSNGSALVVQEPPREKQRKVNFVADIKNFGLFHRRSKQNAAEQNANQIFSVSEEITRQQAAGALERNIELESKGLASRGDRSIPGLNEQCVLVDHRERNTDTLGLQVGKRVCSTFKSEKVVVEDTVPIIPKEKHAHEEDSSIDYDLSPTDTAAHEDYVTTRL

[23] = target: T5, G-protein coupled receptor 35; assay: SAR analysis of Agonists of the GPR35 Receptor using an Image-Based Assay - Set 2. [Related pubchem assays (depositor defined):AID2013, AID2026]; type: functional

T6 sequence (Q9Y2T6 whole entry): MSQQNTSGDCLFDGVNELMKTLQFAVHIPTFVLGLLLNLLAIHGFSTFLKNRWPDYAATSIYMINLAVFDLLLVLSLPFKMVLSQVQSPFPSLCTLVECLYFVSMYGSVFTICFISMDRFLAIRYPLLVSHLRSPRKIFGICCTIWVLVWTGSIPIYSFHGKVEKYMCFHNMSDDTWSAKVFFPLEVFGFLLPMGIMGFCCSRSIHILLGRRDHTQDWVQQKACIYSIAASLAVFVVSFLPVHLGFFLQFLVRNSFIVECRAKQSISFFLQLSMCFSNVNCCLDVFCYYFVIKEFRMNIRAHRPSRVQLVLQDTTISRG
T3 sequence (P21554 whole entry): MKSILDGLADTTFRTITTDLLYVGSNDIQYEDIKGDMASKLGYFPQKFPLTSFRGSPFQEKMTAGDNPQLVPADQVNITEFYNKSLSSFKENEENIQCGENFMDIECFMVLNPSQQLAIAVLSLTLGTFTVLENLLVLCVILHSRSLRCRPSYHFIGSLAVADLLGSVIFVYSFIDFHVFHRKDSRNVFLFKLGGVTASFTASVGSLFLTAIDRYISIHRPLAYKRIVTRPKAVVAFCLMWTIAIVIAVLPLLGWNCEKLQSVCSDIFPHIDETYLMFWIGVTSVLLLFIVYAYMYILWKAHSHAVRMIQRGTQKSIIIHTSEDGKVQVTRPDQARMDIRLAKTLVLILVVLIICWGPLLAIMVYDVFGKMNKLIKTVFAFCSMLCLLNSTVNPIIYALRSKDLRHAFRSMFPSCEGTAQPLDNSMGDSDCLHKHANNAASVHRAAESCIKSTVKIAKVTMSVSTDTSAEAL
T5 sequence (Q9HC97 whole entry): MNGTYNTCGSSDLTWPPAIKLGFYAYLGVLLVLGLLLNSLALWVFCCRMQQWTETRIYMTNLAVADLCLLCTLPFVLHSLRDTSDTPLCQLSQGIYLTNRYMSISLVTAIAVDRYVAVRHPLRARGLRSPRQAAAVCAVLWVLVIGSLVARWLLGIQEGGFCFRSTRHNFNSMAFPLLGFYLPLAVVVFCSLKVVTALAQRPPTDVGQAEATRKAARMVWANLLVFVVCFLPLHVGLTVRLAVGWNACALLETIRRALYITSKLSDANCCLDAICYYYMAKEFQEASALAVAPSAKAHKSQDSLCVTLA
T4 sequence (P34972 whole entry): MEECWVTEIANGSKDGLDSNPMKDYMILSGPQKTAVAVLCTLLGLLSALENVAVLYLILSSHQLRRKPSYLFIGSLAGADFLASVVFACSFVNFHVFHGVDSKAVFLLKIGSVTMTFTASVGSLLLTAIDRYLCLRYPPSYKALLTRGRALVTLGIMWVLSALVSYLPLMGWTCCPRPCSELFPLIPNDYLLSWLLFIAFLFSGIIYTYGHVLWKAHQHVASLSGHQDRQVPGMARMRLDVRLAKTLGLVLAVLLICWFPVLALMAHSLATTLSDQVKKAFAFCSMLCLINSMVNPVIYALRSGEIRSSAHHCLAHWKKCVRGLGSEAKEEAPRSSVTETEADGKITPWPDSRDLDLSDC
Sequence of Beta-lactamase (Salmonella choleraesuis (strain SC-B67), UniProt Q5J463) (Q5J463 whole entry, the tested form may be a part): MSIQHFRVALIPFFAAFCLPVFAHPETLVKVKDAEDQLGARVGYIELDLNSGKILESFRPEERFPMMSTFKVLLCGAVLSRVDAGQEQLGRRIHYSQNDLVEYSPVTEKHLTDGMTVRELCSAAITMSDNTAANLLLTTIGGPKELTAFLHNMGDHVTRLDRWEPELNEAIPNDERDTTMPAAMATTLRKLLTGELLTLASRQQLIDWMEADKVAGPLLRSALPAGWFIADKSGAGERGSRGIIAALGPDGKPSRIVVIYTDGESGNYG
Sequence of Sphingosine 1-phosphate receptor 4 (O95977 whole entry): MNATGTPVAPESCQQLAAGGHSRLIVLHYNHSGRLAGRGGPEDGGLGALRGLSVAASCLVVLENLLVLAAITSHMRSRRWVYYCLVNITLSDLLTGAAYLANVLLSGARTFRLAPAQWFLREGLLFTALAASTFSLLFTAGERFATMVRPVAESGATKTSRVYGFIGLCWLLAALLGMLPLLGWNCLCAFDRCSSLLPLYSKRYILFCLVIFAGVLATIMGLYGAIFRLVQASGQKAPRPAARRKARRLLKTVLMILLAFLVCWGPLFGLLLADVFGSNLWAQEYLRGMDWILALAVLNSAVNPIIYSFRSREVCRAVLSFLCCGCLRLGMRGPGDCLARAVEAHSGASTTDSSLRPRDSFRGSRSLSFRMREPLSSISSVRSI
Sequence of Mucolipin-3 (Q8TDD5 whole entry): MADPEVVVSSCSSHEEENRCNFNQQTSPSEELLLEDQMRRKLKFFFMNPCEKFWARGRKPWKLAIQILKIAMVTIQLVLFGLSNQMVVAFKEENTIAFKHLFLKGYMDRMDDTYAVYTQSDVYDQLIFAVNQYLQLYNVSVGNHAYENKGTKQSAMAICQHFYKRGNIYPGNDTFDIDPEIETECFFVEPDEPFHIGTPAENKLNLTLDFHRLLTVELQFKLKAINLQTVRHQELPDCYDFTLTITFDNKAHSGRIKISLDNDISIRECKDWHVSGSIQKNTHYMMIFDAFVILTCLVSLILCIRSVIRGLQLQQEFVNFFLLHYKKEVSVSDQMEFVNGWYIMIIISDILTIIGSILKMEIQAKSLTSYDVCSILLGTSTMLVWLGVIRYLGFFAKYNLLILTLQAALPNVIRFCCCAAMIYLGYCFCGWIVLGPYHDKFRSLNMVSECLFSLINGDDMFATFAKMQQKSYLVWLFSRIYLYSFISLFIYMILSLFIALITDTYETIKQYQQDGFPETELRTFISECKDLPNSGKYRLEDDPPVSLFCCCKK
Sequence of Ion channel NompC (Q7T1G6 whole entry): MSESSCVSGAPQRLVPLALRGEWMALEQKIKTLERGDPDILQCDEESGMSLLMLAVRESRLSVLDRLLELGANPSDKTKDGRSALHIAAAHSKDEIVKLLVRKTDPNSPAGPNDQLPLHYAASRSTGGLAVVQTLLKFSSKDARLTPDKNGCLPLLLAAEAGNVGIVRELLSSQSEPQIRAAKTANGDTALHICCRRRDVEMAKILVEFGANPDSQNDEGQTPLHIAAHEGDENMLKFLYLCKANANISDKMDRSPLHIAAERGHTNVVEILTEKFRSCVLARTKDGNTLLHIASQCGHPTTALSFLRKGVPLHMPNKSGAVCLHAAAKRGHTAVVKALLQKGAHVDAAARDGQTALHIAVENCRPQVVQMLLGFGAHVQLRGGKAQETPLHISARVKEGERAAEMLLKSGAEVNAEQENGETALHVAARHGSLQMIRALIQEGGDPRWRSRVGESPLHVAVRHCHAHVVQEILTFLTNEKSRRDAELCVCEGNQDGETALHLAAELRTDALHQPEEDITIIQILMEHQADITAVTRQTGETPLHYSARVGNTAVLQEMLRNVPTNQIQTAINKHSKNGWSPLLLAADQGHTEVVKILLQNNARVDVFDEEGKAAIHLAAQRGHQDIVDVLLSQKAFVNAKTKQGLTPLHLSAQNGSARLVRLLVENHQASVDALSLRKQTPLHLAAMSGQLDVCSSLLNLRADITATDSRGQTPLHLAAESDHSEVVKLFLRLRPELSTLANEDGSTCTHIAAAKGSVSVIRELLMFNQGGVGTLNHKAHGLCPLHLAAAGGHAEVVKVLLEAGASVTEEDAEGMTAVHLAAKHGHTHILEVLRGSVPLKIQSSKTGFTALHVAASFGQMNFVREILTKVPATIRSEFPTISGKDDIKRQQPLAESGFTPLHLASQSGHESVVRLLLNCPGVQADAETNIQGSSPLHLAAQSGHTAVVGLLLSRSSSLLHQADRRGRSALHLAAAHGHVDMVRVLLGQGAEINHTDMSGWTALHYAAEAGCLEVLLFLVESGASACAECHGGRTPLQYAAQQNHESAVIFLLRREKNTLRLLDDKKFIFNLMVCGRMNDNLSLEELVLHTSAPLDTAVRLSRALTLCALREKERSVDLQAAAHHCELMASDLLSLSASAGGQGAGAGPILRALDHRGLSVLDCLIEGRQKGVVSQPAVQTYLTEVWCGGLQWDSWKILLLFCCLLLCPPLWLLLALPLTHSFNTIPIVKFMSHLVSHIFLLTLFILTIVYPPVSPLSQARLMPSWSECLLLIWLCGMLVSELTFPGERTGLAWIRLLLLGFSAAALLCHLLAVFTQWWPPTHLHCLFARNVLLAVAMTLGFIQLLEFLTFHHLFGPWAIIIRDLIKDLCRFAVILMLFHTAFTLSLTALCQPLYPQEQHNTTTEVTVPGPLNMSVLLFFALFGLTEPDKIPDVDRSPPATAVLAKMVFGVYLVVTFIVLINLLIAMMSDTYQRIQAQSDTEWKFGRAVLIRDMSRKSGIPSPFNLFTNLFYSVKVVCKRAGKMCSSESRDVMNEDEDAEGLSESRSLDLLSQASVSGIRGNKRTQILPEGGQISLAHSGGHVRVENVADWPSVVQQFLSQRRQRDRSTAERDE
Sequence of Beta-lactamase (Pseudomonas aeruginosa, UniProt Q79MP6) (Q79MP6 whole entry): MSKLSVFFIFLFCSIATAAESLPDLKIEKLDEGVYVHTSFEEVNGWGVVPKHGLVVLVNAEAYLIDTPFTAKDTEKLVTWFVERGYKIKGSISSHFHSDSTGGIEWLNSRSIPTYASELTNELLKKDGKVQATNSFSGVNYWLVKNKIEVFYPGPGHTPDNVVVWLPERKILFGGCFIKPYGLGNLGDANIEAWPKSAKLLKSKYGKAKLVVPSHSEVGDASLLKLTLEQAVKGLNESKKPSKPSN

CC(=O)c1ccccc1NC(=O)C(C)OC(=O)c1c(C)nn(Cc2ccccc2)c1Cl (stereo not drawn)
EC50 [1]: > 50 µM (inactive)

CCCN1C(=O)c2cccc3c(N4CCCCC4)ccc(c23)C1=O
EC50 [2]: 51 µM (inconclusive)
IC50 [3]: > 59.6 µM (inactive)
EC50 [4]: > 9.97 µM (not active)
EC50 [5]: > 9.97 µM (inactive)
IC50 [6]: > 59.6 µM (inactive)
EC50 [7]: 29.8 µM (active)

O=C(Cc1ccccc1F)N1CCC(n2nc(-c3ccccc3)oc2=O)CC1
IC50 [8]: 17.9 µM (inactive)
EC50 [9]: > 32 µM (inactive)
IC50 [10]: > 32 µM (inactive)
EC50 [11]: > 32 µM (inactive)
EC50 [12]: > 32 µM (inactive)
IC50 [13]: > 32 µM (inactive)
IC50 [14]: > 32 µM (inactive)

Cc1[nH]nc(-c2ccc(O)cc2O)c1-c1ccc(Cl)cc1
IC50 [15]: > 32 µM (inactive)
EC50 [16]: > 32 µM (inactive)
IC50 [17]: 2.05 µM (active)
IC50 [18]: > 32 µM (inactive)
IC50 [19]: 3.44 µM (active)
EC50 [20]: > 32 µM (inactive)
IC50 [21]: > 32 µM (inactive)
EC50 [22]: 5.31 µM (active)
EC50 [23]: > 32 µM (inactive)
